The values that follow are results of earlier work, collected in patent US10369118B2, “Method of reducing scarring” (Cole Research & Design, Inc., priority 2013, dated 2019).

Each structure is given as a SMILES string.

In one data set the test system is keratinocytes. Particulars: appear to be cytotoxic.

For `Oc1ccc(/C=C/c2cc(O)cc(O)c2)cc1` [resveratrol, trans-3,4′,5-trihydroxystilbene], the solubility in water result is recorded as “very low solubility”. In addition, in the data set on keratinocytes, the “concentrations cytotoxic to keratinocytes” value was “above 100 micromoles/liter”.
